Source: patent US11471534B2, “Chitosan-pluronic complex and nano-carrier comprising same” (KOREA INSTITUTE OF CERAMIC ENGINEERING AND TECHNOLOGY, priority 2017, dated 2022)

Experiment: Distribution of model drug (Nile red) in skin, fluorescence microscope on cryo-sections
Assay type: in vitro ADME, human
Details: after the skin penetration experiment, 20 μm cryo-sections
Description: After completing a skin penetration experiment of the drugs, skins were fixed in a […] neutral formalin solution for 12 hours or more to confirm how the drugs were distributed in the skins. After mixing the fixed skins with an OCT compound, allowing OCT compound-mixed skins to be frozen in liquid nitrogen of −20° C. or less, and cutting the frozen skins to a thickness of 20 μm through a cryo-section device (−25° C.), sampling was made by attaching the cut skins to glass. After washing samples with deionized water and observing distribution statuses of a model drug (Nile red) in the skins with a fluorescence microscope, observation results are illustrated in FIG. 10.

distribution of model drug (Nile red) in the skin: collected in stratum corneum
Compound: CCN(CC)c1ccc2nc3c4ccccc4c(=O)cc-3oc2c1 [Nile red]
